Results taken from US5446023A, “Amphiphilic compounds derived from amino acids or peptides, their methods of synthesis and their application as drug delivery systems” (Alliance Pharmaceutical Corporation, priority 1992, dated 1995).

Columns and labels:
[1] = tested on: lymphoblastoid cell cultures of the Namalva type; assay: Toxicity on lymphoblastoid cell cultures (Namalva); format: cell-based; settings: 4 days at 37° C.
Procedure: Example 26: The toxicity of products 6a and 6e was determined on lymphoblastoid cell cultures of the Namalva type in an RPMI medium containing 10% of foetal calf serum at 37° C. under 7% CO2, according to the method described by M. Le Blanc et al in Pharm. Res. 195 (1988).

[2] = format: physicochemical; design: formation of vesicles after sonication: dose or concentration left out as unconfirmed
Procedure: (§1) Product 6a (30 mg) was dissolved in a mixture of chloroform/methanol (1/1 v/v) in a round 4 mL tube. The solvent was evaporated in a rotavapor until a uniform film was obtained. The remaining traces of solvent were eliminated under vacuum. Water for injectable preparations (3.97 mL) was added to the dried product. After stirring with a Vortex for 3 minutes, sonication (BRANSON B30, 7 mm probe, Power 5, pulsed mode 50, 15 minutes) at 20° C. above the phase-transition temperature gave a bluish dispersion.
An aqueous dispersion of compound 7b ([…], 60 mM) in citric acid (2 ml, 1M pH=4) was prepared (sonication, probe 3 mm, power5, room temperature, 5 min, mean diameter=35 nm). […] Adriamycin (12 ml, 30 mM) was added to the liposomal dispersion. The amount of drug encapsulated, the stability of encapsulation over time and the release of adriamycin were measured.

mice [3] = assay: In vivo toxicity in mice, rapid intraperitoneal injection; settings: 500 mg/kg
Procedure: (§2) In vivo toxicity of products 6a, 6b, 6c in mice. A rapid intraperitoneal injection was made, of 0.5 mL (25 mL/kg animal body weight, n=10) of a dispersion of these products in physiological water.

[4] = as above; settings: mouse, in vivo, ip
Procedure: as §2

[5] = Identification of vesicles by (transmission) electronic microscopy, negative staining; format: physicochemical; settings: for formation of vesicles (transmission electronic microscopy): negative staining, after dispersion; for formation of vesicles: procedure of example 14, 10^-2 M; for formation of vesicles / formation of vesicles upon dispersion with water: electronic microscopy; for formation of vesicles upon dispersion with water: 10^-2 M
Procedure: as §1
The formation of vesicles was observed by transmission electronic microscopy by the negative staining method. The lipidic dispersion was applied on a grid covered with FORMVAR membrane. The sample was colored by depositing of a drop of phosphotungstic acid (2%, pH adjusted to 7) for 1 min. The excess acid was removed using a filter paper. The grid was then dried and the sample was examined using a PHILIPS microscope (CM2 Model) at 80 Kv.
FIG. 1 is a micrography obtained in these conditions on a 10^-2 M dispersion of product 6a.

[6] = Differential scanning calorimetry: phase transition temperature and transition enthalpy; format: physicochemical
Procedure: The phase transition temperatures and the transition enthalpies were determined after hydration by a known quantity of water using a SETARAM DSC-92 apparatus.
Example 22: Product 6d (16 mg) was hydrated with […] of a mixture of water/ethylene glycol 60/40 (hydratation percentage 28%).
Example 23: Product 6a (10.8 mg) was hydrated with a mixture of water/ethylene glycol 60/40 (hydration percentage 37%).

human erythrocytes = assay: Hemolytic activity on human erythrocytes; format: cell-based; settings: concentration of 50 g/l, 1 hour, 37° C.
Procedure: Example 25: The hemolytic activity of products 6h, 6i was determined by adding 2 mL of a solution of these products in physiological water to an equal volume of a 1% suspension of human erythrocytes in an isotonic phosphate buffer. After an hour of incubation at 37° C. the solutions were centrifuged. The degree of hemolysis was determined spectrophotometrically (540 nm) by comparing the quantity of hemoglobin liberated in the supernatant. Compounds 6h, 6i were not hemolytic at a concentration of 50 g/l.

mice [7] = assay: In vivo toxicity in mice, rapid intravenous injection; settings: 625 mg/kg, 1 month of observation, 10 mice
Procedure: (§3) Example 24: In vivo toxicity of product 6i in mice. A rapid intravenous injection into the caudal vein, of 0.5 mL (25 mL/kg animal body weight) of a solution of 6i in physiological water, to which Pluronic F-68 was added as dispersant (25/10 g/L, 6i/Pluronic F-68) was made.

[8] = as above; settings: mouse, in vivo, caudal vein, 25 mL/kg, 6i/Pluronic F-68 25/10 g/L, mice, read-out: tolerated dose
Procedure: as §3

[9] = Observation of vesicles by electronic microscopy after freeze-fracture; format: physicochemical; settings: 10^-2 M dispersions
Procedure: One drop of lipic dispersion (about […]) was placed on a copper support. Freezing was realized by rapid immersion in liquid propane […]. The fractures were realized using a Balzers BAF 300 at -120° C. under 10^-6 mmHg with a knife cooled to -150° C. The replicas were obtained by depositing a platinum layer (10-20 A) under an angle of 35° then carbon (110-120 A) with an angle of 90°. The replicas were then immersed in water, washed, placed on a copper grid (3 mm, 300 mesh) and examined with a HITACHI 600 electronic microscope (H600) at 75 KV. […] FIG. 2 represents the photomicrographs obtained on 10^-2 M dispersions of products 6b, 7a, 7b.

[10] = intraperitoneal, 1 month of observation, 10 mice
[11] = intraperitoneal, 25 mL/kg dispersion in physiological water, mice, read-out: tolerated dose
[12] = water/ethylene glycol 60/40, hydration percentage 37%
[13] = water/ethylene glycol 60/40, hydration percentage 28%, -10° C. to 45° C., 2° C./min

CCCCCCCCCC(CCC(F)(F)C(F)(F)C(F)(F)C(F)(F)C(F)(F)C(F)(F)F)NC(=O)CNC(=O)[C@H](O)[C@@H](O)[C@H](O[C@@H]1O[C@H](CO)[C@H](O)[C@H](O)[C@H]1O)[C@H](O)CO (stereo partly drawn) [Product 6e, N-α-1-[lactobionocarbonyl]-N-3-[1-(perfluorohexyl)dodecyl] glycinamide]
effect on growth and viability of the cells [1]: did not affect the growth and viability of the cells
formation of vesicles after sonication ([2]; sonication 20 minutes): led to the formation of vesicles
average diameter of vesicles after sterilization ([2]; sonication 20 minutes, after sterilization): 318 nm

C=CCCCCCCCCC(CCC(F)(F)C(F)(F)C(F)(F)C(F)(F)C(F)(F)C(F)(F)F)NC(=O)CNC(=O)[C@H](O)[C@@H](O)[C@H](O[C@@H]1O[C@H](CO)[C@H](O)[C@H](O)[C@H]1O)[C@H](O)CO (stereo partly drawn) [Product 6c]
deaths (mice [3]; [10]): no deaths occurred
MTD at 730 h [4, 11]: 500 mg/kg

C=CCCCCCCCCC(CCCCCCCCCCCC)NC(=O)CNC(=O)[C@H](O)[C@@H](O)[C@H](O[C@@H]1O[C@H](CO)[C@H](O)[C@H](O)[C@H]1O)[C@H](O)CO (stereo partly drawn) [Product 6a, Nα-[1-lactobionocarbonyl]-N-11[trieicos-1-en-yl] glycinamide]
effect on growth and viability of the cells [1]: did not affect the growth and viability of the cells
formation of vesicles (transmission electronic microscopy) [5]: formation of vesicles was also observed
Tc (phase transition temperature) [6, 12]: 22 °C
transition enthalpy [6, 12]: -11.6 mcal/mg
deaths (mice [3]; mouse, in vivo, ip): no deaths occurred
MTD at 730 h [4]: 500 mg/kg
stability of dispersion (particle size) [2]: at least 1 month
effect of sterilization on vesicles ([2]; 121° C. for 15 minutes): did not significantly modify these vesicles
average particle diameter Φ after sterilization ([2]; after sterilization at 121° C. for 15 minutes): 61 nm
average particle diameter Φ before sterilization ([2]; before sterilization at 121° C. for 15 minutes): 58 nm
average particle diameter Φ ([2]; dispersion after sonication 15 min): 49 nm

O=C(CNC(=O)[C@H](O)[C@@H](O)[C@H](O[C@@H]1O[C@H](CO)[C@H](O)[C@H](O)[C@H]1O)[C@H](O)CO)NCCC(F)(F)C(F)(F)C(F)(F)C(F)(F)C(F)(F)C(F)(F)C(F)(F)C(F)(F)F [Product 6i]
effect on growth and viability of the cells [1]: did not affect the growth and viability of the cells
hemolytic activity (human erythrocytes): not hemolytic
deaths (mice [7]): no deaths occurred
MTD at 730 h [8]: 625 mg/kg

O=C(CNC(=O)[C@H](O)[C@@H](O)[C@H](O[C@@H]1O[C@H](CO)[C@H](O)[C@H](O)[C@H]1O)[C@H](O)CO)NCCC(F)(F)C(F)(F)C(F)(F)C(F)(F)C(F)(F)C(F)(F)F [Product 6h, Nα-1-[lactobionocarbonyl]N-1-[2-(perfluorohexyl)ethyl] glycinamide]
effect on growth and viability of the cells [1]: did not affect the growth and viability of the cells
hemolytic activity (human erythrocytes): not hemolytic

CCCCCCCCCCCCC(CCCCCCCCCCC)NC(=O)CNC(=O)[C@H](O)[C@@H](O)[C@H](O[C@@H]1O[C@H](CO)[C@H](O)[C@H](O)[C@H]1O)[C@H](O)CO (stereo partly drawn) [Product 6d, N-α-1-[lactobionocarbonyl]-N-12-[tetraeicosyl] glycinamide]
formation of vesicles [5]: led to the formation of vesicles
Tc (phase transition temperature) [6, 13]: 14 °C
transition enthalpy [6, 13]: -10.29 mcal/mg

C=CCCCCCCCCC(CCCCCCCCCCCC)NC(=O)CNC(=O)CNC(=O)[C@H](O)[C@@H](O)[C@H](O[C@@H]1O[C@H](CO)[C@H](O)[C@H](O)[C@H]1O)[C@H](O)CO (stereo partly drawn) [Product 7b, N-α-(N-α-1-lactobionocarbonyl)-glycyl-N-11-(trieicos-1-enyl) glycinamide]
formation of vesicles upon dispersion with water [5]: forms monolayered vesicles almost instantaneously
formation of vesicles (transmission electronic microscopy) [5]: formation of vesicles was also observed
mean diameter of liposomal dispersion ([2]; 60 mM in citric acid 1M pH=4, sonication 5 min, room temperature): 35 nm
formation of vesicles (freeze-fracture) [9]: formation of vesicles was established

CCCCCCCCCC(CCC(F)(F)C(F)(F)C(F)(F)C(F)(F)C(F)(F)C(F)(F)F)NC(=O)CNC(=O)CNC(=O)[C@H](O)[C@@H](O)[C@H](O[C@@H]1O[C@H](CO)[C@H](O)[C@H](O)[C@H]1O)[C@H](O)CO (stereo partly drawn) [Product 7a]
formation of vesicles upon dispersion with water [5]: forms monolayered vesicles almost instantaneously
formation of vesicles (transmission electronic microscopy) [5]: formation of vesicles was also observed
formation of vesicles (freeze-fracture) [9]: formation of vesicles was established

C=CCCCCCCCCC(CCC(F)(F)C(F)(F)C(F)(F)C(F)(F)C(F)(F)C(F)(F)C(F)(F)C(F)(F)F)NC(=O)CNC(=O)[C@H](O)[C@@H](O)[C@H](O[C@@H]1O[C@H](CO)[C@H](O)[C@H](O)[C@H]1O)[C@H](O)CO (stereo partly drawn) [Product 6b, N-α-[1-lactobionocarbonyl]-N-3-[1-(perfluooctyl)tridec-12-enyl] glycinamide]
formation of vesicles [5]: led to the formation of vesicles
deaths (mice [3]; [10]): no deaths occurred
MTD at 730 h [4, 11]: 500 mg/kg
formation of vesicles (freeze-fracture) [9]: formation of vesicles was established
